The values below come from US7064124B2, “NF-κB inhibitor containing substituted benzoic acid derivative as active ingredient” (Daiichi Suntory Pharma Co., Ltd., priority 2001, dated 2006).

Tested on in one data set: not given
Test: not given
Details: not given
Compound `COC1=C(OC)C(=O)C(Cc2ccc(C(=O)Nc3ccc(Cl)nc3)c(O)c2)=C(C)C1=O` [Example 131, N-(6-Chloropyridin-3-yl)-4-(5,6-dimethoxy-3-methyl-1,4-benzoquinon-2-yl)methyl-2-hydroxybenzamide] gave a melting point of 200.2 to 201.9 °C. The same measure, in the same setting: the figure for `COC1=C(OC)C(=O)C(Cc2ccc(C(=O)Nc3cccnc3Cl)c(OC(C)=O)c2)=C(C)C1=O` [Example 132, N-(2-Chloropyridin-3-yl)-4-(5,6-dimethoxy-3-methyl-1,4-benzoquinon-2-yl)methyl-2-acetoxybenzamide] is 113.5 to 115.1 °C; for `COC1=C(OC)C(=O)C(Cc2ccc(C(=O)Nc3cccnc3Cl)c(O)c2)=C(C)C1=O` [Example 133] it is 200.2 to 202.6 °C; for `COC1=C(OC)C(=O)C(Cc2ccc(C(=O)Nc3ccc(OC)nc3)c(OC(C)=O)c2)=C(C)C1=O` [Example 134, N-(6-Methoxypyridin-3-yl)-4-(5,6-dimethoxy-3-methyl-1,4-benzoquinon-2-yl)methyl-2-acetoxybenzamide] it is 124.7 to 125.5 °C.

Another data set has as its system NF-κB. As to the kind of experiment: NF-κB luciferase reporter assay in A549/NF-κBLuc cells stimulated with IL-1β. In kind it is cell-based, human. To be noted: Homo sapiens, A549, A549/NF-κBLuc cells; compound added 1 hour before IL-1β, then 3 hours incubation; luciferase activity; read-out: NF-κB Inhibitory Activity (IC50). How it is done: Effect on Human Lung Cancer-Derived Cell A549 (A549/NF-κBluc) Containing Stably Introduced Luciferase Plasmid (pNFκB-Luc, Stratagene. U.S.A.) Regulated by NF-κB Binding Sequence
Using Lipofectamine (Lifetech Oriental, Tokyo), pNFκB-Luc and pSV2neo (Clontech, U.S.A.) were co-transfected into the A549 cell (ATCC CCL185) and G418 sulfate (1 mg/ml, Lifetech Oriental) was added to the culture medium to select cells containing stably introduced pNFκB-Luc A549/NF-κBLuc.
The compound obtained in Examples each was added to A549/NF-κBLuc and one hour after that, IL-1β capable of activating NF-κB was added. The incubation was further continued for 3 hours.
NF-κB Inhibitory Activity (IC50) of Substituted Benzoic Acid Derivitives: […]
As to `COC1=C(OC)C(=O)C(Cc2ccc(OC(C)=O)c(C(=O)Nc3cc(OC)c(OC)c(OC)c3)c2)=C(C)C1=O` [Example 106, N-[5-(5,6-Dimethoxy-3-methyl-1,4-benzoquinon-2-yl)methyl-2-acetoxybenzoyl]-3,4,5-trimethoxyaniline], the IC50 was 70 µM.

Consider `COC1=C(OC)C(=O)C(Cc2ccc(OC(C)=O)c(C(=O)Nc3ccc(OC)c(OC)c3)c2)=C(C)C1=O` [Example 107, N-[5-(5,6-Dimethoxy-3-methyl-1,4-benzoquinon-2-yl)methyl-2-acetoxybenzoyl]-3,4-dimethoxyaniline], for which the concentration for half-maximal inhibition (IC50) was 84 µM. Take `COC1=C(OC)C(=O)C(Cc2ccc(OC(C)=O)c(C(=O)Nc3ccc(C(C)=O)cc3)c2)=C(C)C1=O` [Example 108, N-[5-(5,6-Dimethoxy-3-methyl-1,4-benzoquinon-2-yl)methyl-2-acetoxybenzoyl]-4-acetylaniline]: the 50% inhibitory concentration (IC50) was determined as 67 µM. Still for that read-out and setting: the same measure for `COC1=C(OC)C(=O)C(Cc2ccc(OC(C)=O)c(C(=O)Nc3ccc(Cl)cc3)c2)=C(C)C1=O` [Example 109, N-[5-(5,6-Dimethoxy-3-methyl-1,4-benzoquinon-2-yl)methyl-2-acetoxybenzoyl]-4-chloroaniline]: 46 µM; for `COC1=C(OC)C(=O)C(Cc2ccc(OC(C)=O)c(C(=O)Nc3ccc(N4CCOCC4)cc3)c2)=C(C)C1=O` [Example 110, N-[5-(5,6-Dimethoxy-3-methyl-1,4-benzoquinon-2-yl)methyl-2-acetoxybenzoyl]-4-morpholinoaniline]: 34 µM. The same measure, in the same setting: the same measure for `COC1=C(OC)C(=O)C(Cc2ccc(OC(C)=O)c(C(=O)Nc3ccc(C#N)cc3)c2)=C(C)C1=O` [Example 111, N-[5-(5,6-Dimethoxy-3-methyl-1,4-benzoquinon-2-yl)methyl-2-acetoxybenzoyl]-4-cyanoaniline]: 25 µM; for `COC1=C(OC)C(=O)C(Cc2ccc(O)c(C(=O)Nc3cc(OC)c(OC)c(OC)c3)c2)=C(C)C1=O` [Example 114, N-[5-(5,6-Dimethoxy-3-methyl-1,4-benzoquinon-2-yl)methyl-2-hydroxybenzoyl]-3,4,5-trimethoxyaniline]: 48 µM; for `COC1=C(OC)C(=O)C(Cc2ccc(O)c(C(=O)Nc3ccc(OC)c(OC)c3)c2)=C(C)C1=O` [Example 115, N-[5-(5,6-Dimethoxy-3-methyl-1,4-benzoquinon-2-yl)methyl-2-hydroxybenzoyl]-3,4-dimethoxyaniline]: 36 µM.

On to `COC1=C(OC)C(=O)C(Cc2ccc(O)c(C(=O)Nc3ccc(C(C)=O)cc3)c2)=C(C)C1=O` [Example 116, N-[5-(5,6-Dimethoxy-3-methyl-1,4-benzoquinon-2-yl)methyl-2-hydroxybenzoyl]-4-acetylaniline], for which the concentration for half-maximal inhibition (IC50) came to 17 µM. With `COC1=C(OC)C(=O)C(Cc2ccc(O)c(C(=O)Nc3ccc(Cl)cc3)c2)=C(C)C1=O` [Example 117], the IC50 came to 20 µM.

As for `COC1=C(OC)C(=O)C(Cc2ccc(O)c(C(=O)Nc3ccc(N4CCOCC4)cc3)c2)=C(C)C1=O` [Example 118, N-[5-(5,6-Dimethoxy-3-methyl-1,4-benzoquinon-2-yl)methyl-2-hydroxybenzoyl]-4-morpholinoaniline], the IC50 turned out to be 8.3 µM. Still for that read-out and setting: the figure for `COC1=C(OC)C(=O)C(Cc2ccc(O)c(C(=O)Nc3ccc(C#N)cc3)c2)=C(C)C1=O` [Example 119, N-[5-(5,6-Dimethoxy-3-methyl-1,4-benzoquinon-2-yl)methyl-2-hydroxybenzoyl]-4-cyanoaniline] is 13 µM; for `COC1=C(OC)C(=O)C(Cc2ccc(O)c(C(=O)Nc3ccc(C(F)(F)F)cc3)c2)=C(C)C1=O` [Example 120, N-[5-(5,6-Dimethoxy-3-methyl-1,4-benzoquinon-2-yl)methyl-2-hydroxybenzoyl]-4-trifluoromethylaniline] it is 1.7 µM.

For the compound `COC1=C(OC)C(=O)C(Cc2ccc(O)c(C(=O)Nc3cc(C(F)(F)F)cc(C(F)(F)F)c3)c2)=C(C)C1=O` [Example 121, N-[5-(5,6-Dimethoxy-3-methyl-1,4-benzoquinon-2-yl)methyl-2-hydroxybenzoyl]-3,5-bistrifluoromethylaniline], the half-maximal inhibitory concentration (IC50) amounted to 64 µM. With `COC1=C(OC)C(=O)C(Cc2ccc(Oc3ccccc3)c(C(=O)N3CCCc4ccccc43)c2)=C(C)C1=O` [Example 124, N-[5-(5,6-Dimethoxy-3-methyl-1,4-benzoquinon-2-yl)methyl-2-phenoxybenzoyl]-1,2,3,4-tetrahydroquinoline], the half-maximal inhibitory concentration (IC50) was 46 µM. The same measure, in the same setting: the figure for `COC1=C(OC)C(=O)C(Cc2ccc(Oc3ccccc3)c(C(=O)N3CCCCC3C)c2)=C(C)C1=O` (centres unmarked) [Example 125, N-[5-(5,6-Dimethoxy-3-methyl-1,4-benzoquinon-2-yl)methyl-2-phenoxybenzoyl]-2-methylpiperidine] is 19 µM; for `COC1=C(OC)C(=O)C(Cc2ccc(OCc3cccnc3)c(C(=O)N3CCCc4ccccc43)c2)=C(C)C1=O` [Example 126, N-[5-(5,6-Dimethoxy-3-methyl-1,4-benzoquinon-2-yl)methyl-2-(3-pyridylmethyloxy)benzoyl]-1,2,3,4-tetrahydroquinoline] it is 24 µM; for `COC1=C(OC)C(=O)C(Cc2ccc(OCc3cccnc3)c(C(=O)N3CCC(C)CC3)c2)=C(C)C1=O` [Example 127, N-[5-(5,6-Dimethoxy-3-methyl-1,4-benzoquinon-2-yl)methyl-2-(3-pyridylmethyloxy)benzoyl]-4-methylpiperidine] it is 24 µM.

With `COC1=C(OC)C(=O)C(Cc2ccc(OCc3cccnc3)c(C(=O)Nc3cc(OC)c(OC)c(OC)c3)c2)=C(C)C1=O` [Example 128, N-[5-(5,6-Dimethoxy-3-methyl-1,4-benzoquinon-2-yl)methyl-2-(3-pyridylmethyloxy)benzoyl]-3,4,5-trimethoxyaniline], the IC50 turned out to be 19 µM. Same read-out and setting: the same measure for `COC(=O)c1cc(CC2=C(C)C(=O)C(OC)=C(OC)C2=O)ccc1OCC(=O)OC(C)(C)C` [Example 130, Methyl 5-(5,6-Dimethoxy-3-methyl-1,4-benzoquinon-2-yl)methyl-2-(tert-butoxycarbonylmethyloxy)benzoate]: 59 µM. In the case of `COC1=C(OC)C(=O)C(Cc2ccc(OC(C)=O)c(C(=O)N(C)c3ccc(OC)cc3)c2)=C(C)C1=O` [Example 163, N-Methyl-[5-(5,6-dimethoxy-3-methyl-1,4-benzoquinon-2-yl)methyl-2-acetoxybenzoyl]-4-methoxyaniline], the half-inhibitory concentration (IC50) amounted to 30 µg/mL. In the case of `COC1=C(OC)C(=O)C(Cc2ccc(O)c(C(=O)N(C)c3ccc(OC)cc3)c2)=C(C)C1=O` [Example 164, N-Methyl-[5-(5,6-dimethoxy-3-methyl-1,4-benzoquinon-2-yl)methyl-2-hydroxybenzoyl]-4-methoxyaniline], the IC50 is 20 µg/mL. On the same count and under the same terms, the same measure for `COC1=C(OC)C(=O)C(Cc2ccc(OC(C)=O)c(C(=O)Nc3cccnc3)c2)=C(C)C1=O` [Example 201, N-(Pyridin-3-yl)-5-(5,6-dimethoxy-3-methyl-1,4-benzoquinon-2-yl)methyl-2-acetoxybenzamide]: 16 µg/mL. With `COC1=C(OC)C(=O)C(Cc2ccc(O)c(C(=O)Nc3ccc(N)cc3)c2)=C(C)C1=O` [Example 204, N-[5-(5,6-Dimethoxy-3-methyl-1,4-benzoquinon-2-yl)methyl-2-hydroxybenzoyl]-p-phenylenediamine], the half-inhibitory concentration (IC50) is 47 µg/mL. As for `COC1=C(OC)C(=O)C(Cc2cccc(C(=O)Nc3cccnc3)c2OC(C)=O)=C(C)C1=O` [Example 206, N-(Pyridin-3-yl)-3-(5,6-dimethoxy-3-methyl-1,4-benzoquinon-2-yl)methyl-2-acetoxybenzamide], the 50% inhibitory concentration (IC50) turned out to be 87 µg/mL. Regarding `COC1=C(OC)C(=O)C(Cc2ccc(OC(C)=O)c(C(=O)Nc3cccnc3N3CCOCC3)c2)=C(C)C1=O` [Example 222, N-(2-Morpholinopyridin-3-yl)-5-(5,6-dimethoxy-3-methyl-1,4-benzoquinon-2-yl)methyl-2-acetoxybenzamide], the 50% inhibitory concentration (IC50) was 77 µg/mL. The same measure, in the same setting: the same measure for `COC1=C(OC)C(=O)C(Cc2ccc(OC(C)=O)c(C(=O)Nc3ccc(N4CCOCC4)nc3)c2)=C(C)C1=O` [Example 224, N-(6-Morpholinopyridin-3-yl)-5-(5,6-dimethoxy-3-methyl-1,4-benzoquinon-2-yl)methyl-2-acetoxybenzamide]: 24 µg/mL. As for `COC1=C(OC)C(=O)C(Cc2ccc(OC(C)=O)c(C(=O)Nc3ccnc(Cl)c3)c2)=C(C)C1=O` [Example 226, N-(2-Chloropyridin-4-yl)-5-(5,6-dimethoxy-3-methyl-1,4-benzoquinon-2-yl)methyl-2-acetoxybenzamide], the half-inhibitory concentration (IC50) was 19 µg/mL.

Broadly, the melting point is the temperature of the solid-liquid transition. Usually IC50 stands for the concentration at which inhibition is half-maximal.
